Test results as given in PMC11784026, “Phase 1 study of the safety, tolerability, and pharmacokinetics of a synthetic macrocyclic peptide antibiotic (BRII-693) in healthy adult participants” (Antimicrobial Agents and Chemotherapy, 2024).
Several values for one entry are separate records, joined by “and”; a condition that tells them apart may be missing. Equal entries are not always repeated. Where two headings read alike, the source gives them in different places. Marks after values point to notes of the source that are not given here. Where a SMILES comes first, the peptide text is derived from it. Bridges are numbered along the chain shown (N, C = ends). [ ]: non-standard residue; d: D form. The star is where a group is joined. X1 = O=C(c1ccc(Cl)cc1Cl)*; Dab = NCC[C@H](N)C(=O)O; Abu = CC[C@H](N)C(=O)O; Dap = NC[C@H](N)C(=O)O

Tests used:
[1] = Plasma pharmacokinetics after single ascending doses (SAD), phase 1; format: in vivo, human (healthy adult participants); settings: for clearance / Vd / half-life / AUC(0-inf) / Cmax / AUC(0-t) / Tmax: human, plasma; for clearance: total clearance; for Vd: volume of distribution during terminal phase, read-out: VZ; for half-life: apparent terminal half-life; for AUC(0-t): read-out: AUC0–6h
Description: Participants were then discharged on day 3.
Plasma and urine PK parameters were summarized for each cohort using descriptive statistics. Analyses using linear models were performed to assess dose proportionality (both single-dose cohorts 1–7 and multiple-dose cohorts 8–10). Dose-linearity of Cmax and AUC across the dose range was assessed by fitting the power model with ln-transformed parameter as response variables and ln-transformed dose (continuous variable) as a fixed effect. For each PK parameter and study phase (SAD or MAD) separately, a pooled estimate (across all dose cohorts) of slope, corresponding 95% confidence interval (CI), and between-subject coefficient of variation (CV) were calculated. Dose proportionality was to be concluded if the 95% CI for the slope spans 1. […] Least square means (LSMs) and difference in LSMs with 90% CI were calculated; these values were then back exponentiated to give the geometric LSM, geometric mean ratio, and 90% CI.

[2] = SAD; for fe0–48h: % of dose in urine as unchanged drug over 48 h; for CLR: renal clearance
Description: During the SAD phase of the study, cohort dosing of 10, 25, 50, 100, 200, 300, and 400 mg of BRII-693 was evaluated in a sequential manner. Each of the seven SAD cohorts enrolled eight eligible participants (six active; two placebo). On day 1, participants received a single IV dose of BRII-693 or placebo as a 1-hour infusion. Participants were then discharged on day 3.
For the SAD cohorts, blood samples for the measurement of BRII-693 in plasma were obtained before dosing and at 0.5 (mid-infusion), 1 (end of infusion), 1.25, 1.5, 2, 4, 6, 8, 12, 24, 36, and 48 hours following the start of dosing infusion. Urine samples were collected for PK assessment before dosing and at the time intervals of 0–4, 4–8, 8–12, 12–24, 24–36, and 36–48 hours after the start of dosing infusion.
All blood samples were collected into EDTA-containing vials, immediately placed on ice, and centrifuged at 3,000× g for approximately 10 minutes at 4°C. Supernatant plasma was transferred to two pre-chilled cryopreservation vials (at least 1.0 mL per vial) and stored at −80°C until shipped to the analytical laboratory. Urine samples collected for each time interval were refrigerated, aliquoted, and stored at −80°C until shipped to the analytical laboratory. Plasma and urine samples were analyzed for BRII-693 concentrations using validated high-performance liquid chromatography with detection by mass spectrometry method (BioAgilytix, San Diego, CA). The assay range was 50.0–50,000 ng/mL in both plasma and urine.
Area under the concentration-time curve (AUC) from time zero to the time of the last quantifiable concentration (AUC0–last), AUC from time zero to infinity (AUC0–inf), AUC within a dosing interval of 6 hours (AUC0–6h), maximum observed concentration (Cmax), time to reach maximum concentration (Tmax), apparent terminal half-life (t1/2), total clearance (CL), volume of distribution during terminal phase (Vz), and accumulation ratio based on AUC (ARAUC) were determined for BRII-693 in plasma. Urine parameters included amount and percentage of dose recovered in urine as unchanged drug over each collection interval and cumulatively and renal clearance (CLR). PK parameters were determined using noncompartmental methods in Phoenix WinNonlin (Certara, Version 8.3).

[3] = Renal function: serum creatinine, RIFLE Risk criteria; format: in vivo, human (healthy adult participants); settings: for Serum creatinine level: cohort 12, 150 mg q6h × 14 days
From the text: Safety assessments included repeated measures of laboratory testing, vital signs, ECGs, physical examinations, and adverse event (AE) monitoring and reporting conducted before, during, and after study drug administration. A >1.5× increase from baseline in creatinine was characterized as meeting the (RIFLE) “Risk” level (or Class R) criteria ([10]). Participants were confined at the clinical research unit for the duration of their study participation. For the SAD cohorts, confinement was from the day before dosing through day 3 (at least 48 hours after dosing). For the MAD cohorts, confinement was from the day before dosing through day 11 for cohorts 8 to 10 and through day 17 for cohorts 11 and 12.

[4] = single 1-h IV infusion 10 mg, n = 6, arithmetic mean ± SD
[5] = single 1-h IV infusion 25 mg, n = 5, arithmetic mean ± SD
[6] = single 1-h IV infusion 50 mg, n = 6, arithmetic mean ± SD
[7] = single 1-h IV infusion 100 mg, n = 6, arithmetic mean ± SD
[8] = single 1-h IV infusion 200 mg, n = 6, arithmetic mean ± SD
[9] = single 1-h IV infusion 300 mg, n = 6, arithmetic mean ± SD
[10] = single 1-h IV infusion 400 mg, n = 6, arithmetic mean ± SD
[11] = single 1-h IV infusion 10 mg, n = 5, arithmetic mean ± SD

## CC[C@@H]1NC(=O)[C@@H](CC(C)C)NC(=O)[C@H](CCN)NC(=O)[C@@H](NC(=O)[C@H](CN)NC(=O)[C@@H](NC(=O)[C@H](CCN)NC(=O)c2ccc(Cl)cc2Cl)[C@@H](C)O)CCNC(=O)[C@H]([C@@H](C)O)NC(=O)[C@H](CCN)NC(=O)[C@H](CCN)NC1=O [BRII-693] (X1-[Dab]T[Dap][Dab][Dab][dL][Abu][Dab][Dab]T; lactam 4-C; N-terminus assumed)
[1]; [4]
  clearance: 63.8 mL/min
  Vd: 14.1 ± 1.54 L
  half-life: 2.58 ± 0.46 h
  AUC(0-inf): 2640 ± 330 ng·h/mL
  Cmax: 770 ± 120 ng/mL
  AUC(0-t): 2080 ± 190 ng·h/mL
[1]; [5]
  clearance: 72.7 mL/min
  Vd: 20.7 ± 7.61 L
  half-life: 3.22 ± 0.77 h
  AUC(0-inf): 5940 ± 1180 ng·h/mL
  Cmax: 1500 ± 380 ng/mL
  AUC(0-t): 4390 ± 1130 ng·h/mL
[1]; [6]
  clearance: 69.5 mL/min
  Vd: 19.2 ± 3.34 L
  half-life: 3.2 ± 0.43 h
  AUC(0-inf): 12200 ± 1790 ng·h/mL
  Cmax: 3230 ± 460 ng/mL
  AUC(0-t): 9160 ± 1170 ng·h/mL
[1]; [7]
  clearance: 62.7 mL/min
  Vd: 21.8 ± 3.17 L
  half-life: 4.07 ± 0.61 h
  AUC(0-inf): 27300 ± 4580 ng·h/mL
  Cmax: 6710 ± 970 ng/mL
  AUC(0-t): 19200 ± 2740 ng·h/mL
[1]; [8]
  clearance: 68.5 mL/min
  Vd: 21.3 ± 3.27 L
  half-life: 3.83 ± 1.23 h
  AUC(0-inf): 51400 ± 13900 ng·h/mL
  Cmax: 13200 ± 2190 ng/mL
  AUC(0-t): 36700 ± 6290 ng·h/mL
[1]; [9]
  clearance: 72.3 mL/min
  Vd: 25.8 ± 2.73 L
  half-life: 4.12 ± 0.23 h
  AUC(0-inf): 69800 ± 7750 ng·h/mL
  Cmax: 17300 ± 3050 ng/mL
  AUC(0-t): 48900 ± 6180 ng·h/mL
[1]; [10]
  clearance: 65.5 mL/min
  Vd: 24.6 ± 2.47 L
  half-life: 4.37 ± 0.51 h
  AUC(0-inf): 103000 ± 11600 ng·h/mL
  Cmax: 24300 ± 4710 ng/mL
  AUC(0-t): 71400 ± 7200 ng·h/mL
[1]; single 1-h IV infusion 10 mg, n = 6, median (range)
  Tmax: 1.12 h
[1]; single 1-h IV infusion 25 mg, n = 5, median (range)
  Tmax: 1.1 h
[1]; single 1-h IV infusion 50 mg, n = 6, median (range)
  Tmax: 1.07 h
[1]; single 1-h IV infusion 100 mg, n = 6, median (range)
  Tmax: 1.13 h
[1]; single 1-h IV infusion 200 mg, n = 6, median (range)
  Tmax: 1.18 h
[1]; single 1-h IV infusion 300 mg, n = 6, median (range)
  Tmax: 1.16 h
[1]; single 1-h IV infusion 400 mg, n = 6, median (range)
  Tmax: 1.19 h
[1]; single doses 10–400 mg, appeared dose independent
  Mean total clearance: approximately 4 L/h
[2]; [11]
  fe0–48h: 0.95 ± 0.50^b %
  CLR: 0.036 ± 0.018^b L/h
[2]; [5]
  fe0–48h: 5.73 ± 3.67%
  CLR: 0.22 ± 0.12 L/h
[2]; [6]
  fe0–48h: 21.5 ± 9.19%
  CLR: 0.86 ± 0.33 L/h
[2]; [7]
  fe0–48h: 40.2 ± 5.40%
  CLR: 1.51 ± 0.31 L/h
[2]; [8]
  fe0–48h: 47.6 ± 15.6%
  CLR: 1.92 ± 0.80 L/h
[2]; [9]
  fe0–48h: 57.5 ± 16.2%
  CLR: 2.44 ± 0.50 L/h
[2]; [10]
  fe0–48h: 68.4 ± 11.4%
  CLR: 2.68 ± 0.42 L/h
[3]; 150 mg q6h × 14 days
  Participants with creatinine elevation (>1.5× increase from baseline, RIFLE risk class): 1 of 20
[3]; 200 mg q6h × 7 days, first participant, day 11
  Serum creatinine level after completion of therapy: 1.17 mg/dL
[3]; 200 mg q6h × 7 days, one participant, day 10
  Peak serum creatinine level: 1.54 mg/dL
[3]; 200 mg q6h × 7 days, other participant, day 11
  Serum creatinine level after completion of therapy: 1.10 mg/dL
[3]; 200 mg q6h × 7 days, reversible
  Participants with creatinine elevation (>1.5× increase from baseline, RIFLE risk class): Two of six and 2 of 6
[3]; 200 mg q6h × 7 days, the other participant, day 9
  Peak serum creatinine level: 1.64 mg/dL
[3]; one participant, day 9
  Serum creatinine level: 1.74 mg/dL
[3]; one participant, day 11
  Serum creatinine level: 1.72 mg/dL
[3]; one participant, day 13
  Serum creatinine level: 2.07 mg/dL
[3]; same participant, unscheduled visit after day 13
  Serum creatinine level: 1.39 mg/dL
